Reference: patent publication US20230136600A1, “Method and device for screening antigen epitope polypeptide” (priority 2020, published 2023)

Tested on: Balb/c mice
Experiment: Polypeptide chip-based vaccine immunogenicity scoring system
Type: in vivo
Set-up: key to A2: whether the 95 percentile of the last sampling is increased compared with the end point: Y = rise; N = no rise
Details: Embodiment III, polypeptide-KLH; for A1: difference between a highest median and a D 0 median (95 percentile) / A2: whether the 95 percentile of the last sampling is increased compared with the end point: Mix1-10; for Total single peptide: A*3 + B*2 + C*1; for A: 95 percentile grouping number score / B: Mouse performance score: total score = 5; for C1: #A timing-sequence response peptide fragment set / C2: #B vaccine specificity peptide fragment set / C3: Intersection of A and B / C4: Percentage of the intersection in set B / C: Timing-sequence response and specificity score: value of the whole mix

Row | Sequence | B1: D 0-D 14 95 percentile rise in the number of mice | B2: D 0-D 21 95 percentile rise in the number of mice | B3: D 14-D 21 95 percentile rise in the number of mice | B4: D 21-D 28 95 percentile rise in the number of mice | A1: difference between a highest median and a D 0 median (95 percentile) | A2: whether the 95 percentile of the last sampling is increased compared with the end point | Total single peptide | A: 95 percentile grouping number score | B: Mouse performance score | C1: #A timing-sequence response peptide fragment set | C2: #B vaccine specificity peptide fragment set | C3: Intersection of A and B | C4: Percentage of the intersection in set B | C: Timing-sequence response and specificity score
1 | VNKGEDIQLLKS [SEQ ID NO:27] | 3 | 3 | 1 | 0 | 0.14 | N | 17.4 | 4.5 | 1.7 | 133 | 431 | 1 | 0.232 | 0.5
2 | YEGNSPFH [SEQ ID NO:18] | 3 | 2 | 0 | 2 | 0.06 | Y | 9.9 | 2 | 1.7 | 1212 | 389 | 1 | 0.257 | 0.5
3 | YTNDKACPL (SARS-CoV-2) [SEQ ID NO:1] | 2 | 2 | 1 | 1 | 0.11 | Y | 18.3 | 5 | 1.4 | 257 | 682 | 3 | 0.440 | 0.5
4 | YYKKDNSYF (SARS-CoV-2) [SEQ ID NO:25] | 2 | 3 | 2 | 1 | 0.06 | N | 9.1 | 1.5 | 1.8 | 823 | 398 | 7 | 1.759 | 1
